The results in this text go back to patent US20220332742A1, “Naringin-Loaded Metal Organic Frameworks” (Colgate-Palmolive Company, priority 2021, published 2022).

Values after ≈ are worked out from the molar mass of the structure shown.

Common to all, as to assay type: cell-based
Data set [1] deals with Bacillus subtilis. Kind of data set: Antibacterial activity, MIC by micro-dilution method. The following applies: TSB, lowest concentration that completely inhibits growth.
Procedure: The antibacterial activity of the prepared MOF complexes is determined against Bacillus subtilis, by calculating minimal inhibitory concentration (MIC) using the micro-dilution method. Briefly, test samples are diluted with TSB solution to 2 mg/mL, and then further serial dilutions are prepared in TSB. Bacterial cultures are incubated in TSB for 16 hours, then 100 microliter suspensions are transferred to 4 mL of fresh medium and incubated for another 6 hours in order to reach mid-log phase stage. Then, the bacteria are diluted to provide 10^6 colony-forming units per mL (CFU/mL) based on OD600 measurement. […] The tested products are the naringin-loaded MOF prepared from 0.5 mg/ml naringin in ethanol, 0.5 mg/mL naringin in 1:4 ethanol/water solution, and 1 mg/mL naringin in 1:2.2 ethanol/water solution.
Data set [2] relates to TNF-alpha. Kind of data set: TNF-alpha release from EL4 T cells, ELISA. The following applies: 24 hours. As for the experimental part: (§1) The ability of naringin-loaded MIL-101(Fe) to promote the release of IL-2 and TNF-alpha from EL4 T cells is evaluated. Enzyme-linked immunosorbent assay (ELISA) is performed according to the manufacturer specifications. Briefly, EL-4 T-cells are incubated in 96-well plates at an initial density of 8000 cells/well. The cell cultures are treated with either MIL-101(Fe), naringin or naringin-loaded MIL-101(Fe) (Example 1(d)) at the following concentrations in PBS: 0, 100, and 200 μg/mL. The plates are incubated for 24 hours at 37° C. in 5% CO2 atmosphere. The solutions are then transferred to a V-shaped 96 well plate and centrifuged at 500 g for 5 minutes. The supernatant solutions are then collected and the recommend ELISA protocol is performed. Absorbance at 450 and 540 nm is measured using a 96-well plate reader, and the results are compared to cytokine standard solutions.
Background: ELISA stands for enzyme-linked immunosorbent assay.

For data set [3], the system named is H1299 mouse lung tumor cells. Kind of data set: Tumor cell cytotoxicity, ATP viability assay (ATPLite 1-step Luminescence). As for the experimental part:
The ability of naringin-loaded MIL-101(Fe) to kill H1299 […] lung tumor cells is evaluated using the ATP viability assay (Perkin Elmer, ATPLite 1-step Luminescence Assay). H1299 cells are seeded at 5000 cells/mL in white 96-well plates and incubated with either MIL-101(Fe), naringin or naringin-loaded MIL-101(Fe) (Example 1(d) at the following concentrations: 0, 3.125, 25, 50, 100, and 200 μg/mL. The ATP kit solution is then added to each well, and a 96-well microplate reader is used to measure total luminescence. Cell viability is calculated as a percentage of the luminescence of the untreated control. The results are shown in the following table: […]
Background: Cellular ATP, detected with luciferase, serves as a proxy for viable cell number.

For data set [4], the system named is IL-2. The experiment in a line: IL-2 release from EL4 T cells, ELISA. The conditions noted are these: 24 hours. As for the experimental part:
as §1

Data set [5] in a line: EL4 T cell viability, ATP viability assay (ATPLite 1-step Luminescence). The conditions noted are these: mouse, EL4 T cells. As for the experimental part: The ability of naringin-loaded MIL-101(Fe) to promote the viability of EL4 T cells is evaluated using the ATP viability assay (Perkin Elmer, ATPLite 1-step Luminescence Assay). EL4 T cells are seeded at 8000 cells/mL in white 96-well plates and incubated with either naringin or naringin-loaded MIL-101(Fe) (Example 1(d)) at the following concentrations: 3.125, 6.25, 12.5, 25, 50, 100, and 200 μg/mL. The ATP kit solution is then added to each well, and a 96-well microplate reader is used to measure total luminescence. Cell viability is calculated as a percentage of the luminescence of the untreated control.

Setting [6] is: 3.125 µg/mL of agent, % of untreated control.

By MIC is commonly meant the lowest concentration that inhibits growth of the organism. A high value points to a need for much substance. One may read the viability as the share of living cells, or the viability signal relative to a control. Turning to `C[C@@H]1O[C@@H](O[C@H]2[C@H](Oc3cc(O)c4c(c3)O[C@H](c3ccc(O)cc3)CC4=O)O[C@H](CO)[C@@H](O)[C@@H]2O)[C@H](O)[C@H](O)[C@H]1O` [Naringin], in data set [1], it took 5000 µg/mL (≈ 8.61 mM) to inhibit growth (MIC). In addition, the TNF-alpha concentration in data set [2] (100 µg/mL of agent) is 10.64 pg/mL; in data set [2] (200 µg/mL of agent), 9.92 pg/mL. The “Cell viability (%)” value in data set [3] (setting [6]) is 85.97%; in data set [3] (25 µg/mL of agent), 73.26%; in data set [3] (50 µg/mL of agent), 80.15%; in data set [3] (100 µg/mL of agent), 87.10%; in data set [3] (200 µg/mL of agent), 83.23%. Further, the IL-2 concentration worked out at 15.22 pg/mL in data set [4] (100 µg/mL of agent) and 16.49 pg/mL in data set [4] (200 µg/mL of agent). In addition, in data set [5] (setting [6]), the viability at 3.125 µg/mL worked out at 77%. For the same molecule, the viability at 6.25 µg/mL in data set [5] (6.25 µg/mL of agent) came to 75.8%. Further, in data set [5] (12.5 µg/mL of agent), the viability at 12.5 µg/mL was 72.1%. For the same molecule, in data set [5] (25 µg/mL of agent), the viability at 25 µg/mL came out at 67%. Moreover, the viability at 50 µg/mL in data set [5] (50 µg/mL of agent) is 74.9%. In addition, in data set [5] (100 µg/mL of agent), the viability at 100 µg/mL is 80.3%. Further, the viability at 200 µg/mL in data set [5] (200 µg/mL of agent) came out at 84.7%.
